# Data as given in article PMC12077799, “Fragment-based drug discovery for transthyretin kinetic stabilisers using a novel capillary zone electrophoresis method” (PLOS One, 2025).
# Biological target: T1, Human transthyretin (TTR) (Homo sapiens, UniProt P02766)
# T1 construct: purchased SCIPAC (Sittingbourne, Kent, UK) P171-1
# Assay: Co-crystallisation of TTR-ligand complex, X-ray hit confirmation
# Type: binding
# Settings: fragment seen in ligand-omitted difference density at >= 2σ in one or both binding sites; full or partial density
# Protocol: Crystals were grown by vapor diffusion using a published crystallisation cocktail (100 mM HEPES pH 7.5, 200 mM CaCl2, 28% v/v PEG400) at 21 °C [29]. The hanging drop contained 1 μL of crystallisation cocktail, 1 μL of diluted ligand and 1 μL of TTR protein solution (85 μM). […] Crystals were harvested and flash cooled in a N2 cryostream or dipped into liquid ethane without cryoprotectant. Data was collected at Diamond Light Source (Oxon, UK) beamline I24, I04 or I04-1 (Pilatus 6M or ADSC Q315) or the European Synchrotron Radiation Facility (ESRF, Grenoble, France) beamline ID29 (Pilatus 6M-F) or in-house (Bruker X8 Diffractometer with APEXII CCD detector). Crystal unit cell was initially indexed by software MOSFLM [30] and LABELIT [31] within the EDNA [32] automatic data processing workflow. Diffraction image integration was performed by XDS [33] and reflection intensities were scaled by SCALA [34] or by PROTEUM2 if collected in-house. Phases were obtained by molecular replacement method using PHASER [35], 1DVQ from the Protein Data Bank (PDB) was used as the search model. Atomic positions of the initial model were refined by REFMAC5 [36]. Model building and ligand fitting was completed using COOT [37]. Model graphics were generated using CCP4MG [38]. Crystallographic statistics of all structures can be found in S4 Table.
compound,measurement,value
"c1ccc2c(-c3cn[nH]c3)ccnc2c1 [SFL001535, 4-(3H-pyrazol-4-yl)quinoline]",Confirmed by X-ray,Yes 9H7I
